In PubChem BioAssay (NCI):
Where “and” joins values, the source holds several entries; their conditions need not be identical. Equal entries are not always repeated.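 A five-concentration, 48-hour dose response in 96-well plates underlies each endpoint, interpolated linearly between surrounding concentrations. GI50 is the concentration that inhibits growth by half. TGI marks complete inhibition of growth.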

Assays:
Experiment in all cases: NCI-60 cell line screen, 48 h
[1] = tested on: HL-60(TB) leukemia
[2] = tested on: M14 melanoma
[3] = tested on: MCF7 breast
[4] = tested on: MDA-MB-435
[5] = tested on: NCI/ADR-RES ovarian
[6] = tested on: DLD-1 colon
[7] = tested on: DMS 114 small cell lung
[8] = tested on: LXFL 529 NSCLC
[9] = tested on: SNB-78 CNS

Compound	GI50 [1]	TGI [1]	GI50 [2]	TGI [2]	GI50 [3]	TGI [3]	GI50 [4]	TGI [4]	GI50 [5]	TGI [5]	TGI [6] [µM]	TGI [7] [µM]	TGI [8] [µM]	TGI [9] [µM]
C[C@@H](N)C1CCC(C(=O)Nc2ccncc2)CC1 (stereo not given in full)	> 100 µM	> 100 µM	> 100 µM	> 100 µM	> 100 µM	> 100 µM	> 100 µM	> 100 µM	> 100 µM	> 100 µM	–	–	–	–
CC(/C=C/C(=O)c1sc(-n2nc(-c3ccccc3)cc2-c2ccccc2)nc1C)=C\c1ccccc1	–	> 100 µM	> 100 µM	> 100 µM	–	–	–	–	–	–	> 100	> 100	> 100	–
Cc1nnc(N=Nc2c(O)[nH]c3c(Cl)cc(Cl)cc23)n1N	–	> 100 µM	–	> 100 µM	–	–	–	–	–	–	> 100	–	> 100	> 100
COC(=O)C(Cc1cnc[nH]1)NC(=O)CNC(=O)CCCn1c(=O)c2c3ccccc3n(C)c2n2nnc(-c3ccccc3)c12 (stereo not given)	–	–	> 100 µM	> 100 µM	> 100 µM	> 100 µM	> 100 µM	> 100 µM	> 100 µM	> 100 µM	–	–	–	–
COc1c2c3ccccc3nc-2n(C)c2ccccc12	9.88 µM	47.6 µM	–	–	4.31 µM	33.1 µM	13.9 µM	38.3 µM	7.33 µM	34.8 µM	–	–	–	–
CCOC(=O)C(Cc1c[nH]c2ccc([N+](=O)[O-])cc12)(NC(C)=O)C(=O)OCC	–	–	> 1000 µM	> 1000 µM	81 µM	> 1000 µM	> 1000 µM	> 1000 µM	53.6 µM	> 1000 µM	–	–	–	–
O=C(CCCCCCCn1cc(-c2cccnc2)nn1)Nc1ccccc1-c1ccccc1	4.74 µM	29.1 µM	0.0914 µM	16.5 µM	3.36 µM	51.5 µM	0.305 µM	13.2 µM	0.0688 µM	27.4 µM	–	–	–	–
COc1ccccc1/C=C/C(=O)c1c(O)cc2occc2c1OC	–	–	> 100 µM	> 100 µM	9.56 µM	> 100 µM	5.96 µM	> 100 µM	29.6 µM	> 100 µM	–	–	–	–
O=C(N/N=C/c1ccccc1O)C(O)(c1ccccc1)c1ccccc1	2.88 µM	> 100 µM	50.5 µM	> 100 µM	–	–	> 100 µM	> 100 µM	7.65 µM	> 100 µM	–	–	–	–
Cc1nc2ccccn2c1NC(=O)NNC(=S)Nc1ccc(Br)cc1	24.4 µM	> 100 µM	24.5 µM	67.9 µM	29.4 µM	> 100 µM	29.3 µM	70.6 µM	24.5 µM	58 µM	–	–	–	–
Cc1cc(C(=O)Nc2nc3cccc(Cl)c3n2[C@@H]2CCCCN(C(=O)/C=C/CN(C)C)C2)ccn1	17 µM	38.3 µM	13.7 µM	27.5 µM	4.95 µM	20.3 µM	9.49 µM	23.3 µM	5.37 µM	49 µM	–	–	–	–
O=C(c1ccc(OCCN2CCCCC2)cc1)c1c(-c2ccc(O)cc2)sc2cc(O)ccc12	2.02 µM	12.7 µM	3.23 µM and 10.3 µM	11.1 µM and 32.3 µM	1.48 µM	15.6 µM and 14 µM	1.94 µM and 4.2 µM	4.58 µM and 19.7 µM	7.72 µM and 17.7 µM	23.1 µM and 42.6 µM	–	–	–	–
CCc1c2c(nc3cc4c(c(N)c13)OCO4)-c1cc3c(c(=O)n1C2)COC(=O)[C@]3(O)CC	< 0.001 µM	–	< 0.001 µM	1.03 µM	< 0.001 µM	0.0298 µM	0.0241 µM and 0.0796 µM	2.01 µM and 1.96 µM	–	56.7 µM	–	–	–	–
O=Cc1ccc(-c2ccc(-c3nc4ccccc4[nH]3)cc2)s1	47.1 µM	> 100 µM	18.2 µM	43.2 µM	–	–	26.4 µM	69.2 µM	21.1 µM	50.9 µM	–	–	–	–
Cc1ncc(C(=O)Nc2ccc(CN3CCN(C)CC3)c(C(F)(F)F)c2)cc1C#Cc1cnc(N)c2cnccc12	0.0383 µM	1.03 µM	0.0225 µM	0.17 µM	1.18 µM	3.69 µM	0.0261 µM	4.11 µM	6.68 µM	23.9 µM	–	–	–	–
CNC1C(O)C(OC2C(N)CC(N)C(OC3OC(CN)=CCC3N)C2O)OCC1(C)O (stereo not given)	–	> 100 µM	–	> 100 µM	–	> 100 µM	–	> 100 µM	–	> 100 µM	–	–	–	–
CCN(CC)c1ccc(C2CC(c3cc(OC)c(OC)c(OC)c3)=NN2)cc1 (stereo not given)	0.59 µM	2.7 µM	1.16 µM	> 100 µM	0.227 µM	–	0.404 µM	> 100 µM	0.44 µM	> 100 µM	–	–	–	–
CCCOc1ccc(-c2nc(-c3ccc(N=Cc4ccc(N(CCOS(C)(=O)=O)CCOS(C)(=O)=O)cc4C)cc3)cs2)cc1	–	54 µM	–	> 86.4 µM	–	> 100 µM	–	> 100 µM	–	> 84.6 µM	–	–	–	–
COC(=O)[C@@]1(Cc2ccccc2)[C@H]2c3cc(C(=O)N4CCCC4)n(Cc4ccc(OC)c(OC)c4)c3C[C@H]2CN1C(=O)c1ccccc1	8.96 µM	24.8 µM	11.5 µM	25.7 µM	13.8 µM	44.8 µM	11.7 µM	32.8 µM	11.4 µM	35.4 µM	–	–	–	–
O=C1/C=C/[C@@H](O)[C@@H]2C[C@@H](O)C[C@H]2/C=C/CCC[C@H](CCc2ccc(C(F)(F)F)cc2)O1	0.346 µM	2.74 µM	0.247 µM	11.9 µM	0.197 µM	0.457 µM	0.243 µM	> 72.1 µM	0.191 µM	9.58 µM	–	–	–	–
O=C(NCCc1ccccc1)C(c1ccccc1)(c1ccccc1)c1ccccc1	38.7 µM	> 100 µM	–	–	26 µM	> 100 µM	12.2 µM	45.8 µM	2.23 µM	6.59 µM	–	–	–	–
COc1ccc(-c2nsc3c2NC(=O)CC3c2ccc(F)cc2)cc1 (stereo not given)	0.598 µM	> 21.1 µM	3.74 µM	> 100 µM	3.29 µM	> 100 µM	0.513 µM	2.43 µM	2.57 µM	> 26.9 µM	–	–	–	–
CN[C@@H](C)C(=O)N[C@H]1CN(C(=O)CC(C)C)CC[C@H]2CC[C@@H](C(=O)NC(c3ccccc3)c3ccccc3)N2C1=O	29.1 µM	> 100 µM	> 100 µM	> 100 µM	> 100 µM	> 100 µM	> 100 µM	> 100 µM	> 100 µM	> 100 µM	–	–	–	–
CC(=O)[O-].CC(=O)[O-].O=C(N/N=C/c1cc(Cl)cc(Cl)c1O)c1ccncc1.[Ni+2]	–	45.3 µM	–	> 100 µM	–	–	–	–	–	–	–	–	–	–

Compound	GI50 [1]	TGI [1]	GI50 [2]	TGI [2]	GI50 [3]	TGI [3]	GI50 [4]	TGI [4]	GI50 [5]	TGI [5]	TGI [6] [µM]	TGI [7] [µM]	TGI [8] [µM]	TGI [9] [µM]
C/C1=C/C(=O)O[C@@H]2C[C@@H](CC[C@H](C)/C=C\C=C\CC1)O[C@@](O)([C@@H]1CSC(=O)N1CO)C2	0.253 µM	18.8 µM	0.227 µM	21.2 µM	13.1 µM	37.7 µM	0.29 µM	> 88.6 µM	1.2 µM	46.1 µM	–	–	–	–
Cc1ccc2c(c1)C(C)Cc1c(ncnc1-n1cnc3cc(C)ccc31)N2C (stereo not given)	0.025 µM	0.0557 µM	–	–	0.0345 µM	12.8 µM	–	–	0.0374 µM	54.3 µM	–	–	–	–
COC(=O)[C@H]1C(=O)[C@@]2(C)[C@H]([C@H](OC(=O)c3ccccc3)[C@]3(O)C[C@H](OC(=O)[C@H](O)[C@@H](NC(=O)c4ccc(F)cc4)c4ccccc4)C(C)=C1C3(C)C)[C@]1(OC(C)=O)CO[C@@H]1C[C@@H]2O	0.00614 µM	0.0184 µM	0.0114 µM	0.105 µM	0.00354 µM	> 25 µM	0.0025 µM	0.00604 µM	4.61 µM	> 25 µM	–	–	–	–
COc1cc2c3c(c4ccc(OC)c(OC)c4c2cc1OC)CN1CCC[C@@H]1C3	–	0.577 µM	–	2.56 µM	–	> 20.3 µM	–	5.83 µM	–	0.4 µM	–	–	–	–
COc1cc(-c2nc(NC(C)=O)sc2-c2ccnc(NCCNS(=O)(=O)c3ccccc3)n2)ccc1Cl	3.14 µM	7.45 µM	2.09 µM	5.42 µM	2.4 µM	> 100 µM	0.799 µM	3.45 µM	> 100 µM	> 100 µM	–	–	–	–
CN1CCC(CNc2ccc3ncc(-c4cccc(OC(F)(F)F)c4)n3n2)CC1	1.54 µM and 1 µM	3.79 µM and 2.89 µM	1.74 µM and 1.48 µM	3.5 µM and 3.15 µM	1.61 µM and 1.81 µM	3.25 µM and 5.46 µM	1.42 µM and 1.54 µM	2.96 µM and 3.4 µM	2.84 µM and 5.26 µM	10.5 µM and > 10 µM	–	–	–	–
COc1cccc(Cn2c(-c3nonc3N)nc3ccccc32)c1	0.298 µM	13.8 µM	0.532 µM	> 100 µM	0.383 µM	> 100 µM	0.201 µM	0.549 µM	0.396 µM	–	–	–	–	–
O=C(CSc1nc2ccccc2nc1-c1ccccc1)Nc1ccc(Cl)cc1	–	–	23.7 µM	> 100 µM	44.3 µM	> 100 µM	29.8 µM	> 100 µM	24.9 µM	91.5 µM	–	–	–	–
Sc1ccc2ccccc2c1CNCc1ccccc1	–	26.9 µM	–	27.6 µM	–	> 100 µM	–	29.9 µM	–	98.1 µM	–	–	–	–
O=Nc1ccc(O)c2ccccc12	–	–	1.83 µM	3.41 µM	1.81 µM	4.31 µM	0.33 µM	1.1 µM	1.11 µM	6.61 µM	–	–	–	–
O=C1/C(=C\c2ccc(F)cc2)CN(C(=O)c2ccc([N+](=O)[O-])cc2)C/C1=C\c1ccc(F)cc1	5.07 µM	> 50.2 µM	2.28 µM	6.81 µM	0.389 µM	4.19 µM	1.83 µM	> 27.7 µM	3.65 µM	> 100 µM	–	–	–	–
Cc1ccc(S(=O)(=O)Oc2ccc([N+](=O)[O-])cc2[N+](=O)[O-])cc1	11.4 µM	38.3 µM	2.57 µM	10.9 µM	4.13 µM	23.2 µM	3.1 µM	10.5 µM	5.31 µM	38 µM	–	–	–	–
NC(=O)/C(=C\c1ccncc1)c1cccc2ccccc12	–	> 100 µM	–	> 100 µM	–	> 100 µM	–	> 100 µM	–	> 100 µM	–	–	–	–
CN(C)CCCNC(=O)c1ccc2oc3cc4ccccc4c(=O)n3c2c1	29.8 µM	> 50 µM	30.3 µM	> 50 µM	> 50 µM	> 50 µM	31.6 µM	> 50 µM	> 50 µM	> 50 µM	–	–	–	–
NCCCCCCCCn1c2c(c3ccccc3c1=O)C(=O)c1ccccc1-2	2.34 µM	6.23 µM	3.4 µM	10.4 µM	7.45 µM	46.2 µM	5.63 µM	21.5 µM	4.29 µM	85.1 µM	–	–	–	–
COc1ccccc1-c1cc(/C=C2\C(=O)Nc3ncc(Br)cc32)cc(Br)c1O	7.47 µM	23.7 µM	12.9 µM	> 25 µM	8.05 µM	> 25 µM	7.47 µM	> 25 µM	14.5 µM	> 25 µM	–	–	–	–
C=C(C)[C@@H]1CC[C@]2(C(N)=O)CC[C@]3(C)[C@H](CC[C@@H]4[C@@]5(C)CC[C@H](O)C(C)(C)[C@@H]5CC[C@]43C)[C@@H]12	3.59 µM	17.5 µM	6.05 µM	> 100 µM	2.91 µM	11.2 µM	8.65 µM	> 100 µM	3.17 µM	12.5 µM	–	–	–	–
Nc1ccccc1SC(CC(=O)c1ccccc1)c1ccc([N+](=O)[O-])cc1 (stereo not given)	12.6 µM	35.2 µM	13.8 µM	27.8 µM	3.31 µM	16.1 µM	14.3 µM	28 µM	14.5 µM	28.9 µM	–	–	–	–
CCNCCC1(CC)C(=O)NC(=O)NC1=O	–	–	–	> 100 µM	–	> 100 µM	–	> 100 µM	–	> 100 µM	–	–	–	–
CCC(=O)C1(c2ccccc2)CCN(C)CC1	–	> 100 µM	–	> 100 µM	–	> 100 µM	–	–	–	> 100 µM	–	–	–	–
COc1c2ccoc2cc2oc(=O)ccc12	–	> 100 µM	–	> 100 µM	–	> 100 µM	–	> 100 µM	–	> 100 µM	–	–	–	–
Nc1nc(Cl)cc(NCCCCCNc2cc(Cl)nc(N)n2)n1	–	> 100 µM	–	> 100 µM	–	–	–	–	–	–	> 100	–	> 100	88
O=c1[nH]cc(/C=N\Nc2ccccc2)c(=O)[nH]1	–	> 100 µM	–	> 100 µM	–	> 100 µM	–	> 100 µM	–	> 100 µM	–	–	–	–
